This is an account of results in patent US6277834A, “Agents for relieving side effects of adrenal cortex hormone” (Senju Pharmaceutical Co. Ltd., priority 1998, dated 2001).

Structures can show the parent of a compound that is named as a salt.

What is called LD50 is the dose expected to kill half of the subjects tested. A higher LD50 goes with lower toxicity.

Data set [1] relates to croton oil-induced edema of the right auricles of the mice. Put plainly: Croton oil-induced ear edema in mice (antiinflammatory effect). The class given is in vivo, ICR mice (10-week old male). The procedure:
A test was performed for examining antiinflammatory effect observed by concurrent use of the present compound and an adrenocortical hormone. In addition, dose-response test was carried out for the adrenocortical hormone.
(§1) 0.012% betamethasone valerate (dissolved in methanol).
0.5% EPC-K (dissolved in methanol).
Twenty μl of croton oil (6%) dissolved in acetone was applied on the outer surface of the right auricles of the mice to induce edema. Fifteen minutes later, 20 μl of one of the test materials was applied to each of the right auricles.
Four hours after the application of the test materials, the thickness of the right auricles of the mice were measured using a dial thickness gauge and edema rates were determined by comparing their thickness with that before induction.

Data set [2] in a line: Body weight, thymus and spleen weight in hairless mice after repeated topical application (reduction of side effects of an adrenocortical hormone). Conditions: EPC-K (0.5%) administered concurrently with betamethasone valerate (0.012%), two weeks. The procedure: A test was carried out to examine the effect of the present compound to reduce side effects of an adrenocortical hormone.
as §1
0.012% betamethasone valerate +0.5% EPC-K (dissolved in methanol).
10-week old female HR-1 hairless mice purchased from SLC Japan were used for the test. One hundred μl of the test materials were applied to the respective mice on the whole area of their back skin. This procedure was repeated once a day for two weeks, and then the body weight and the weight of the thymus and the spleen were determined.

A further data set is described as follows: Acute toxicity (LD50). Conditions: in vivo, rat.
Where [3] appears, read: Table 4, 4 h after 20 μl topical, 0.5% EPC-K, 0.012% betamethasone valerate, or both, mean ± S.D. (n = 23-27), methanol 116.1 ± 23.3.
Setting [4] is: Table 4, edema inhibition 4 h after 20 μl topical, 0.5% EPC-K, 0.012% betamethasone valerate, or both, n = 23-27.

Turning to `CCCCC(=O)O[C@]1(C(=O)CO)[C@@H](C)C[C@H]2[C@@H]3CCC4=CC(=O)C=C[C@]4(C)[C@@]3(F)[C@@H](O)C[C@@]21C` [Betamethasone valerate, betamethasone valerate], the “Edema rate(%)” value in data set [1] (setting [3]) worked out at 87.3 ± 21.7%; in data set [1] (Table 5 dose-response, 0.012% betamethasone valerate, 4 h, mean ± S.D. (n = 8-9), methanol 138.8 ± 18.5), 101.6 ± 15.3%; in data set [1] (Table 5 dose-response, 0.040% betamethasone valerate, 4 h, mean ± S.D. (n = 8-9), methanol 138.8 ± 18.5), 86.5 ± 30.3%; in data set [1] (Table 5 dose-response, 0.12% betamethasone valerate, 4 h, mean ± S.D. (n = 8-9), methanol 138.8 ± 18.5), 52.8 ± 13.3%. Also, the “Inhibition rate(%)” value was found to be 27.9% in data set [1] (setting [4]); 26.8% in data set [1] (Table 5 dose-response, 0.012% betamethasone valerate, 4 h, n = 8-9); 37.7% in data set [1] (Table 5 dose-response, 0.040% betamethasone valerate, 4 h, n = 8-9); 62.0% in data set [1] (Table 5 dose-response, 0.12% betamethasone valerate, 4 h, n = 8-9). Also, the “concentration of betamethasone valerate that would give an effect comparable to 0.012% betamethasone valerate plus 0.5% EPC-K” value in data set [1] (calculated from the dose-response test (Table 5)) is on record as 0.088%.
Take `Cc1c(C)c2c(c(C)c1OP(=O)(O)OC1=C(O)[C@@H]([C@@H](O)CO)OC1=O)CCC(C)(CCCC(C)CCCC(C)CCCC(C)C)O2` (mixture of isomers) [EPC-K, potassium salt of phosphodiester of L-ascorbic acid and DL-α-tocopherol]: in data set [2], the “atrophy of spleen (by betamethasone valerate)” value is “suppressed”, the “atrophy of thymus (by betamethasone valerate)” value is on record as “suppressed” and the “body weight reduction (by betamethasone valerate)” value was “suppressed”. Further, the “Edema rate(%)” value in data set [1] (setting [3]) came out at 109.1 ± 26.3%. The “Inhibition rate(%)” value in data set [1] (setting [4]) is given as 6.0%. In “Acute toxicity (LD50)” (iv), this molecule returned an LD50 of over 100 mg/kg. Besides, the LD50 in the data set “Acute toxicity (LD50)” (po) was over 5000 mg/kg.
